Series [1] deals with influenza A virus (WSN strain). In words: Influenza A virus (WSN) replication in A549 cells, hemagglutination assay. The class given is cell-based. To be noted: for Virus yield: Table 2, WSN; for Decrease of virus production: influenza virus, each agent given separately.
The subject of series [2] is paramyxovirus (Sendai, SV). In words: Sendai virus (SV) replication in 37RC cells, hemagglutination assay. The class given is cell-based. To be noted: for Virus yield: Table 2, SV; for Reduction of virus production: paramyxovirus, each agent given separately.
The test system of series [3] is Herpes Simplex type 1 virus (HSV-1). As to the kind of experiment: HSV-1 replication in HEp-2 cells, CPE50% assay. The class given is cell-based, Herpes Simplex virus type 1.
The test system of series [4] is transcription factor HSF (Heat Shock Factor). In words: Activation of HSF (Heat Shock Factor). The conditions noted are these: at the active antiviral concentrations, data not shown. The class given is cell-based.
A further series relates to rotavirus (SA-11 strain). In words: Rotavirus (SA-11) replication in MA104 cells, hemagglutination assay. The class given is cell-based. The conditions noted are these: MA104, 24 h, read-out: IC50 (50% reduction of the virus titer).
For the next series, the system named is GRP78/BiP. As to the kind of experiment: Synthesis of stress protein GRP78/BiP. The class given is cell-based.
The test system of series [5] is 37RC cells infected with SV. In words: Cytoprotective effect in SV-infected 37RC cells (FIG. 1). The class given is cell-based, monkey. To be noted: 37RC cells infected with SV for 24 hours, 400 microM INDO. The protocol: (§1) FIGS. 1 and 2 show the cytoprotective effect of INDO. Cells were infected as described in example 1.
FIG. 1A: 37RC cells non infected (control); FIG. 1B: 37RC cells infected with SV for 24 hours non treated (SV); FIG. 1C: 37RC cells infected with SV for 24 hours and treated with 400 microM INDO (SV+INDO).

The subject of the next series is virion. In words: Addition to the virus suspension or during virus adsorption. The class given is cell-based. The conditions noted are these: INDO 5-10 mM, any of the viruses indicated.
The subject of another series is coxsackie virus. The conditions noted are these: cited from earlier work.
The test system of series [6] is coronavirus (CCoV, S-378 strain). As to the kind of experiment: Coronavirus (CCoV) replication in A-72 cells, CPE50% assay. The class given is cell-based.
Series [7] concerns A-72 cells infected with CCoV. As to the kind of experiment: Cytoprotective effect in CCoV-infected A-72 cells (FIG. 2). The conditions noted are these: A-72 cells infected with CCoV for 24 hours, 400 microM INDO. The class given is cell-based, canine. How it is done:
as §1
FIG. 2A: A-72 cells non infected (control); FIG. 2B: A-72 cells infected with CCoV for 24 hours non treated (CCoV); FIG. 2C: A-72 cells infected with CCoV for 24 hours and treated with 400 microM INDO (CCoV+INDO).

Another series has as its system HIV-1. To be noted: HIV-1 infection; cited from earlier work.
Series [8] has as its system transcription factor NF-κB. As to the kind of experiment: Activation of NF-κB induced by viral infection. The class given is cell-based. To be noted: at the active antiviral concentrations, data not shown.
The next series has as its system poxvirus. The conditions noted are these: cited from earlier work.
Series [9] concerns Vesicular Stomatitis Virus (VSV). To be noted: VSV infection; cited from earlier work.
The next series deals with herpesviruses. To be noted: some herpesviruses; cited from earlier work.

Each structure is given as a SMILES string. “And” between values parts separate entries of the source, which are not always exact repeats. Identical values can stand only once.

Take `[Cl-].[Cl-].[Zn+2]` [ZnCl2]: the Virus yield in series [1] (ZnCl2 alone 50 μM) is listed as 67 % of control; in [2] (ZnCl2 alone 50 μM), 60 % of control; in series [3] (Table 2, HSV-1, ZnCl2 alone 50 μM), 8.3 % of control.
With `CCCCC[C@H](O)C/C=C1/C(=O)C=C[C@@H]1C/C=C\CCCC(=O)O` [Δ^12-PGJ2], the Virus yield in series [1] (Δ^12-PGJ2 alone 5 μM) is recorded as 67 % of control. In addition, in series [1], the “Decrease of virus production” value is on record as “approximately 30%”.
One may read the IC50 as the concentration needed to halve the response being measured. One may read the inhibition as the change of the read-out against control, counted positive when it falls. As to `COc1ccc2c(c1)c(CC(=O)O)c(C)n2C(=O)c1ccc(Cl)cc1` [INDO, Indomethacin], in series [4], the “Activation of HSF (Heat Shock Factor)” value is on record as “does not activate”. The IC50 with rotavirus (SA-11 strain) is less than 25 µM; in series [1] (Influenza A virus, WSN, A549, 24 h, read-out: IC50 (50% reduction of the virus titer)), 400 µM; in series [2] (Respirovirus muris, 24 h, read-out: IC50 (50% reduction of the virus titer)), 130 µM; in [6] (A-72, 24 h, read-out: IC50 (50% reduction of the virus titer)) it was less than 50 µM. For the same compound, the “Effect at 48 hours after infection” value in [1] is “lost its effect”. In addition, the Virus yield was 75 % of control in [1] (INDO alone 200 μM); 67 % of control in series [1] (INDO alone 400 μM); 50 % of control and 60 % of control in series [2] (INDO alone 100 μM); 28.2 % of control and 38.1 % of control in series [3] (Table 2, HSV-1, INDO alone 25 μM); 9.7 % of control in [3] (Table 2, HSV-1, INDO alone 100 μM). For the same compound, the “Decrease of virus production” value in series [1] is “approximately 30%”. For the same compound, the “Synthesis of endoplasmic reticulum stress protein GRP78/BiP” value in the series with GRP78/BiP is listed as “observed the synthesis”. Moreover, in series [2], the “Reduction of virus production” value came to 40%. Further, the “Protective effect on cellular damage (cytopathic effect) caused by virus” value in series [5] and in series [7] was “protected from the destructive cytopathic effect” each time. In addition, the “Effect on virus replication when added to the virus suspension or during virus adsorption” value in the series with virion is listed as “no effect”. In addition, in the series with host cell, the “Concentrations non-toxic for the host cell” value lay within 10 to 800 µM. Moreover, the “Antiviral effect (literature)” value with coxsackie virus is “no antiviral effect or to worsen the infection”; in the series on HIV-1, “antiviral effect”; in the series on poxvirus it was “no antiviral effect or to worsen the infection”; in [9] it was “antiviral effect”; in the series on herpesviruses it was “antiviral effect”. Also, the inhibition at 50 µM in series [6] (A-72, coronavirus, INDO 50 microM, read-out: Inhibition of virus production as compared to control) is more than 90%. Further, the “Inhibition of NF-κB activation induced by the viral infection” value in series [8] is given as “does not inhibit”.
Consider `NC(=O)c1ncn([C@@H]2O[C@H](CO)[C@@H](O)[C@H]2O)n1` [RIB, ribavirin], for which the Virus yield in [1] (RIB alone 50 μM) is 58 % of control.
For the compound `CCCCC/C=C/C=C1/C(=O)C=C[C@@H]1C/C=C\CCCC(=O)O` [15dx-PGJ2, 15deoxy-Δ^12-14-PGJ2], the Virus yield in [2] (15dx-PGJ2 alone 1 μM) is on record as 37 % of control. In addition, in series [2], the “Reduction of virus production” value is given as 63%.
`CCCCC[C@H](O)/C=C/[C@H]1C=CC(=O)[C@@H]1CCCCCCC(=O)O` [PGA1]: in series [3] (Table 2, HSV-1, PGA1 alone 25 μM), the Virus yield is given as 9 % of control.
On to `Nc1nc2c(ncn2COCCO)c(=O)[nH]1` [ACY, acyclovir], for which the Virus yield in [3] (Table 2, HSV-1, ACY alone 1 μM) is listed as 7.7 % of control.
